Measured values published in patent publication US9365588B2, “Benzoxazines as modulators of ion channels” (Vertex Pharmaceuticals Incorporated, priority 2011, dated 2016).

Target: human NaV 1.7 (Homo sapiens, UniProt Q15858)
Experiment: E-VIPR optical membrane potential assay with electrical stimulation
Type: cell-based
Conditions: sodium channel inhibition; read-out: Binned Activity Data (IC50)
Text: Assays for Detecting and Measuring NaV Inhibition Properties of Compound E-VIPR Optical Membrane Potential Assay Method with Electrical Stimulation
Sodium channels are voltage-dependent proteins that can be activated by inducing membrane voltage changes by applying electric fields. The electrical stimulation instrument and methods of use are described in Ion Channel Assay Methods PCT/US01/21652, herein incorporated by reference and are referred to as E-VIPR. The instrument comprises a microtiter plate handler, an optical system for exciting the coumarin dye while simultaneously recording the coumarin and oxonol emissions, a waveform generator, a current- or voltage-controlled amplifier, and a device for inserting electrodes in well. Under integrated computer control, this instrument passes user-programmed electrical stimulus protocols to cells within the wells of the microtiter plate.
24 hours before the assay on E-VIPR, HEK cells expressing human NaV subtype, like NaV 1.7, are seeded in 384-well poly-lysine coated plates at 15,000-20,000 cells per well. Other subtypes are performed in an analogous mode in a cell line expressing the NaV of interest. HEK cells are grown in media (exact composition is specific to each cell type and NaV subtype) supplemented with 10% FBS (Fetal Bovine Serum, qualified; GibcoBRL #16140-071) and 1% Pen-Strep (Penicillin-Streptomycin; GibcoBRL #15140-122). Cells are grown in vented cap flasks, in 90% humidity and 10% CO2, to 100% confluence. They are usually split by trypsinization 1:10 or 1:20, depending on scheduling needs, and grown for 2-3 days before the next split.
Bath1 buffer. Glucose 10 mM (1.8 g/L), Magnesium Chloride (Anhydrous), 1 mM (0.095 g/L), Calcium Chloride, 2 mM (0.222 g/L), HEPES 10 mM (2.38 g/L), Potassium Chloride, 4.5 mM (0.335 g/L), Sodium Chloride 160 mM (9.35 g/L).
Hexyl Dye Solution: Bath1 Buffer+0.5% β-cyclodextrin (make this prior to use, Sigma #C4767), 8 μM CC2-DMPE+2.5 μM DiSBAC6(3). To make the solution Add volume of 10% Pluronic F127 stock equal to volumes of CC2-DMPE+DiSBAC6(3). The order of preparation is first mix Pluronic and CC2-DMPE, then add DiSBAC6(3) while vortexing, then add Bath1+β-Cyclodextrin.
1) Pre-spot compounds (in neat DMSO) into compound plates. Vehicle control (neat DMSO), the positive control (20 mM DMSO stock tetracaine, 125 μM final in assay) and test compounds are added to each well at 160× desired final concentration in neat DMSO. Final compound plate volume will be 80 μL (80-fold intermediate dilution from 1 μL DMSO spot; 160-fold final dilution after transfer to cell plate). Final DMSO concentration for all wells in assay is 0.625%.
2) Prepare Hexyl Dye Solution.
3) Prepare cell plates. On the day of the assay, medium is aspirated and cells are washed three times with 100 μL of Bath1 Solution, maintaining 25 μL residual volume in each well.
4) Dispense 25 μL per well of Hexyl Dye Solution into cell plates. Incubate for 20-35 minutes at room temp or ambient conditions.
5) Dispense 80 μL per well of Bath1 into compound plates. Acid Yellow-17 (1 mM) is added and Potassium Chloride can be altered from 4.5 to 20 mM depending on the NaV subtype and assay sensitivity.
6) Wash cell plates three times with 100 μL per well of Bath1, leaving 25 μL of residual volume. Then transfer 25 uL per well from Compound Plates to Cell Plates. Incubate for 20-35 minutes at room temp/ambient condition
7) Read Plate on E-VIPR. Use the current-controlled amplifier to deliver stimulation wave pulses for typically 9 seconds and a scan rate of 400 Hz. A pre-stimulus recording is performed for 0.5 seconds to obtain the un-stimulated intensities baseline. The stimulatory waveform is applied for 9 seconds followed by 0.5 seconds of post-stimulation recording to examine the relaxation to the resting state. […]

human NaV 1.7, sequence (Q15858 whole entry): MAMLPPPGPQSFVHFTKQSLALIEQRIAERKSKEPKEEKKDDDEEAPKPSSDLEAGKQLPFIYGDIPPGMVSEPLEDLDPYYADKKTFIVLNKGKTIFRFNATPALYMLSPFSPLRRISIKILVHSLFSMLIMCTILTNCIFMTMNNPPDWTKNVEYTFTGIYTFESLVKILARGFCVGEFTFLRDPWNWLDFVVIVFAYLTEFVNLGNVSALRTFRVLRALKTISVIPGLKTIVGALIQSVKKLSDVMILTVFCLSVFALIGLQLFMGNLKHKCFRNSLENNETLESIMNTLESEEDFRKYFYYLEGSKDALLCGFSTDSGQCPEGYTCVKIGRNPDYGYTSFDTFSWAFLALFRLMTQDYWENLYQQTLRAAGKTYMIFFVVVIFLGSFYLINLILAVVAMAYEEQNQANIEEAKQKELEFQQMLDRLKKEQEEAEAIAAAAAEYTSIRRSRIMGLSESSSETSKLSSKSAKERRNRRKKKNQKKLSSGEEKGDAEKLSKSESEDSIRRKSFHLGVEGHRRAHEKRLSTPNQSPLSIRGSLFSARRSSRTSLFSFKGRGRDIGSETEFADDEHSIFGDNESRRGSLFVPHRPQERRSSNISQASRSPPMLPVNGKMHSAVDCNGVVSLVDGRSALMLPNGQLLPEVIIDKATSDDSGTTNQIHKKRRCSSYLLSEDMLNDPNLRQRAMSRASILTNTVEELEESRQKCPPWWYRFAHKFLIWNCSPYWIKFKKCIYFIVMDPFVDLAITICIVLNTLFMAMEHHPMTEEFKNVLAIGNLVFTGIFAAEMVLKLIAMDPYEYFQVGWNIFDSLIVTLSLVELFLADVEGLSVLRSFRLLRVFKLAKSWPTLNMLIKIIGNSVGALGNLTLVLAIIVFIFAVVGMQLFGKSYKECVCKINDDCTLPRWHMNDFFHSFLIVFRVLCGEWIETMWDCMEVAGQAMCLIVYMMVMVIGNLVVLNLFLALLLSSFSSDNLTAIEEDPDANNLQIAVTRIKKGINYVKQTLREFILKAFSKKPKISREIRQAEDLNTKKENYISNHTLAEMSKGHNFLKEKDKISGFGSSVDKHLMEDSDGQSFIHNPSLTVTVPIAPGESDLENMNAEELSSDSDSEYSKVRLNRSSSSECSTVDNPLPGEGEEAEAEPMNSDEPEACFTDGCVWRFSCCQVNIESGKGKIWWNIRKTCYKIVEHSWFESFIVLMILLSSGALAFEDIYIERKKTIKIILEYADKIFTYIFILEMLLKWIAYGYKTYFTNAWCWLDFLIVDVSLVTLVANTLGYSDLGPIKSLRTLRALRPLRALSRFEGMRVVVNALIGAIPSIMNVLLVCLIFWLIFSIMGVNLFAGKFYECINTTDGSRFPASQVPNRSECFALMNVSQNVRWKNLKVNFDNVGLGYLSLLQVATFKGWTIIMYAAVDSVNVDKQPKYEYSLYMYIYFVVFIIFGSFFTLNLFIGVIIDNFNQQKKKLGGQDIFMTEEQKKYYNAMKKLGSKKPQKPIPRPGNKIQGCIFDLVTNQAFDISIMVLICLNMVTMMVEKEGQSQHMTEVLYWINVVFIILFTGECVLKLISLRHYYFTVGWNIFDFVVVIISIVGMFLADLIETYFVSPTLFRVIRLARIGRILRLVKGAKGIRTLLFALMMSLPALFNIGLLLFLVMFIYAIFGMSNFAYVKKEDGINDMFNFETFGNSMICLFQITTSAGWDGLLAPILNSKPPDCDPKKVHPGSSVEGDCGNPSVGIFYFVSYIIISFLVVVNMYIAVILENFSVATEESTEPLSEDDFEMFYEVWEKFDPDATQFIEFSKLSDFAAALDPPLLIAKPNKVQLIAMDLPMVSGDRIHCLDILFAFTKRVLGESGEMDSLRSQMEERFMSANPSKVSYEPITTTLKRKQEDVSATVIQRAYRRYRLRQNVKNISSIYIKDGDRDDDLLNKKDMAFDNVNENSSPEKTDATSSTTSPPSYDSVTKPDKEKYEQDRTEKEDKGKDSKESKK

## CC(C)Oc1ccc(C(=O)N2CCC3(CC2)Oc2ccc(F)cc2-c2nn(C)cc23)cc1 [Compound 117]
  IC50: ≤ 2 µM

## CC(C)S(=O)(=O)c1ccc(C(=O)N2CCC3(CC2)Oc2ccccc2-n2ccnc23)cc1 [Compound 119]
  IC50: 2 to 5 µM

## COc1cc(OC(F)(F)F)ccc1C(=O)N1CCC2(CC1)Oc1ccccc1-c1c2cnn1C [Compound 121]
  IC50: ≤ 2 µM

## Cc1cc(C(=O)N2CCC3(CC2)Oc2ccccc2-n2c(C(F)(F)F)ccc23)ccc1S(C)(=O)=O [Compound 123]
  IC50: ≤ 2 µM

## N#Cc1ccc2n1-c1ccccc1OC21CCN(C(=O)c2cccc(F)c2OC(F)F)CC1 [Compound 125]
  IC50: ≤ 2 µM

## CC[C@H](C)Oc1ccc(C(=O)N2CCC3(CC2)Oc2ccccc2-n2cccc23)cc1C(F)(F)F [Compound 126]
  IC50: ≤ 2 µM

## COc1cc(F)c(F)cc1C(=O)N1CCC2(CC1)Oc1ccccc1-c1c2cnn1C [Compound 127]
  IC50: > 5 µM

## CCCOc1ccc(C(=O)N2CCC3(CC2)Oc2ccccc2-c2c3cnn2C)cc1 [Compound 128]
  IC50: ≤ 2 µM

## COc1ccc(C(=O)N2CCC3(CC2)Oc2cc(Cl)ccc2-n2cccc23)c(C(F)(F)F)c1 [Compound 129]
  IC50: ≤ 2 µM

## CCOc1ncccc1C(=O)N1CCC2(CC1)Oc1ccccc1-n1c(C(F)(F)F)ccc12 [Compound 130]
  IC50: ≤ 2 µM

## CC[C@@H](C)Oc1ccc(C(=O)N2CCC3(CC2)Oc2ccccc2-n2cccc23)cc1C(F)(F)F [Compound 131]
  IC50: ≤ 2 µM

## CC(C)Oc1ccc(C(=O)N2CCC3(CC2)Oc2ccccc2-c2c3cnn2C)cc1Cl [Compound 135]
  IC50: ≤ 2 µM

## CCc1ccc(C(=O)N2CCC3(CC2)Oc2cc(CN)ccc2-n2cccc23)cc1OC [Compound 137]
  IC50: > 5 µM

## Cn1ncc2c1-c1ccccc1OC21CCN(C(=O)c2cccnc2Oc2ccccc2)CC1 [Compound 138]
  IC50: ≤ 2 µM

## COCCOc1ccc(C(=O)N2CCC3(CC2)Oc2cc(Cl)ccc2-n2cccc23)cc1OC [Compound 139]
  IC50: ≤ 2 µM

## COc1cc(C(=O)N2CCC3(CC2)Oc2ccccc2-n2cccc23)ccc1OC[C@@H](O)CO [Compound 140]
  IC50: ≤ 2 µM

## Cc1cc(C(=O)N2CCC3(CC2)Oc2ccccc2-c2c3cnn2C)ccc1S(C)(=O)=O [Compound 141]
  IC50: ≤ 2 µM

## CC[C@H](C)Oc1ccc(C(=O)N2CCC3(CC2)Oc2cc(F)ccc2-n2cccc23)cc1OC [Compound 142]
  IC50: ≤ 2 µM

## COc1ccc(C(=O)N2CCC3(CC2)Oc2ccccc2-c2c3cnn2C)cc1C(F)(F)F [Compound 143]
  IC50: 2 to 5 µM

## CC[C@@H](C)Oc1ccc(C(=O)N2CCC3(CC2)Oc2ccccc2-n2cccc23)cc1C#N [Compound 145]
  IC50: ≤ 2 µM

## COc1cc(C(=O)N2CCC3(CC2)Oc2ccccc2-c2c3cnn2C)ccc1OC[C@H](C)OC [Compound 146]
  IC50: ≤ 2 µM

## Cn1cccc(C(=O)N2CCC3(CC2)Oc2cc(Cl)ccc2-n2cccc23)c1=O [Compound 147]
  IC50: ≤ 2 µM

## CC(C)NC(=O)c1ccc(C(=O)N2CCC3(CC2)Oc2ccccc2-c2c3cnn2C)cc1 [Compound 150]
  IC50: > 5 µM

## O=C(c1ccc(S(=O)(=O)[C@H]2CCOC2)cc1)N1CCC2(CC1)Oc1ccccc1-n1c(C(F)(F)F)ccc12 [Compound 151]
  IC50: ≤ 2 µM

## Cc1cc(C(=O)N2CCC3(CC2)Oc2ccccc2-n2ccnc23)ccc1OC(C)C [Compound 153]
  IC50: ≤ 2 µM

## CCn1ncc2c1-c1ccccc1OC21CCN(C(=O)c2cccc(F)c2OC)CC1 [Compound 154]
  IC50: ≤ 2 µM

## Cn1ncc2c1-c1ccccc1OC21CCN(C(=O)c2ccnc(N3CCCCC3)c2)CC1 [Compound 155]
  IC50: ≤ 2 µM

## COc1cc(C(=O)N2CCC3(CC2)Oc2ccccc2-n2c(C#N)ccc23)ccc1OC(C)C [Compound 156]
  IC50: ≤ 2 µM

## Cc1cc(OC(C)C)ccc1C(=O)N1CCC2(CC1)Oc1ccccc1-c1c2cnn1C [Compound 158]
  IC50: ≤ 2 µM

## Cc1ccc(C(=O)N2CCC3(CC2)Oc2ccccc2-n2cccc23)cc1C [Compound 159]
  IC50: ≤ 2 µM

## Cn1ncc2c1-c1ccccc1OC21CCN(C(=O)c2cccc3c2CCO3)CC1 [Compound 160]
  IC50: > 5 µM

## COc1ccc(C(=O)N2CCC3(CC2)Oc2ccccc2-n2cc(C)cc23)cc1C(F)(F)F [Compound 161]
  IC50: ≤ 2 µM

## COc1ccc(C(=O)N2CCC3(CC2)Oc2ccccc2-n2c(C(F)(F)F)ccc23)c(OC)c1OC [Compound 164]
  IC50: ≤ 2 µM

## COc1cc(C(=O)N2CCC3(CC2)Oc2cccnc2-n2cccc23)ccc1OCCC(C)C [Compound 165]
  IC50: ≤ 2 µM

## COC(C)(C)c1ccc(C(=O)N2CCC3(CC2)Oc2cc(F)ccc2-n2cccc23)cc1C [Compound 166]
  IC50: ≤ 2 µM

## CCn1ncc2c1-c1ccccc1OC21CCN(C(=O)c2ccccc2OC(F)F)CC1 [Compound 167]
  IC50: ≤ 2 µM

## COc1cc(C(=O)N2CCC3(CC2)Oc2cc(F)ccc2-n2cccc23)ccc1C(C)(C)O [Compound 168]
  IC50: ≤ 2 µM

## COc1cc(C(=O)N2CCC3(CC2)Oc2ccccc2-c2c3cnn2C)ccc1OC(F)F [Compound 169]
  IC50: 2 to 5 µM

## O=C(c1ccc(O[C@@H]2CCOC2)c(C(F)(F)F)c1)N1CCC2(CC1)Oc1ccccc1-n1cccc12 [Compound 170]
  IC50: ≤ 2 µM

## CC(=O)c1ccc2n1-c1ccccc1OC21CCN(C(=O)c2ccc(OC(C)C)c(C)c2)CC1 [Compound 171]
  IC50: ≤ 2 µM

## COC[C@H](C)Oc1ccc(C(=O)N2CCC3(CC2)Oc2cc(Cl)ccc2-n2cccc23)cc1OC [Compound 172]
  IC50: ≤ 2 µM

## Cn1cc2c(n1)-c1ccccc1OC21CCN(C(=O)c2ccc3ncsc3c2)CC1 [Compound 173]
  IC50: ≤ 2 µM

## CC(C)CCOc1ccc(C(=O)N2CCC3(CC2)Oc2ccccc2-c2c3cnn2C)cc1 [Compound 174]
  IC50: ≤ 2 µM

## Cn1cc2c(n1)-c1cc(F)ccc1OC21CCN(C(=O)c2ccccc2OC(F)(F)F)CC1 [Compound 175]
  IC50: ≤ 2 µM

## COc1cc(C(=O)N2CCC3(CC2)Oc2ccccc2-n2c(C(F)(F)F)ccc23)ccc1OCC(N)=O [Compound 176]
  IC50: ≤ 2 µM

## CC(C)Oc1ccc(C(=O)N2CCC3(CC2)Oc2ccc(F)cc2-c2nn(C)cc23)cc1CO [Compound 180]
  IC50: ≤ 2 µM

## COc1ccc(C(=O)N2CCC3(CC2)Oc2ccccc2-n2ccc(C)c23)cc1C(F)(F)F [Compound 181]
  IC50: ≤ 2 µM

## Cn1ncc2c1-c1ccccc1OC21CCN(C(=O)c2ccc3c(c2)CC(C)(C)O3)CC1 [Compound 182]
  IC50: 2 to 5 µM

## CC(C)Oc1ccc(C(=O)N2CCC3(CC2)Oc2ccccc2-c2c3cnn2C)c2ncccc12 [Compound 183]
  IC50: ≤ 2 µM

## O=C(c1ccc(OCCO)cc1)N1CCC2(CC1)Oc1ccccc1-n1cccc12 [Compound 184]
  IC50: ≤ 2 µM

## Cn1ncc2c1-c1ccccc1OC21CCN(C(=O)c2cccc3[nH]ccc23)CC1 [Compound 186]
  IC50: ≤ 2 µM

## COc1ccc(C(=O)N2CCC3(CC2)Oc2ccccc2-c2c3cnn2C)c(OC)c1 [Compound 187]
  IC50: ≤ 2 µM

## Cc1cc(OC(C)C)ccc1C(=O)N1CCC2(CC1)Oc1ccccc1-c1nn(C)cc12 [Compound 188]
  IC50: ≤ 2 µM

## COc1ccc(OC)c(C(=O)N2CCC3(CC2)Oc2cc(Cl)ccc2-n2cccc23)c1 [Compound 189]
  IC50: ≤ 2 µM

## CCCOc1ccc(C(=O)N2CCC3(CC2)Oc2ccccc2-c2c3cnn2C)cc1OC [Compound 190]
  IC50: ≤ 2 µM

## COc1cc(C(=O)N2CCC3(CC2)Oc2ccccc2-n2cccc23)ccc1OCCOC(F)(F)F [Compound 191]
  IC50: ≤ 2 µM
